The text below walks through data of paper PMC4809600, “The Influence of Chronic Wound Extracts on Inflammatory Cytokine and Histatin Stability” (PLoS ONE, 2016).

The subject of the experiment is dermal fibroblasts. The experiment is described as follows: Fibroblast wound healing scratch assay (migration). Format: cell-based, human. Particulars: serum-free medium, histatins 5 μM, rhIL-6 125 ng/ml, rhCXCL8 250 ng/ml, (E0-E96)/(U0-U96), unexposed = 1; for Migration of dermal fibroblasts in scratch assay, 8 h exposure: 8 h exposure then 88 h without, read at 96 h; for Migration of dermal fibroblasts in scratch assay, 96 h exposure: continuous 96 h exposure. Here is the method: Dermal fibroblasts were isolated from healthy human abdominal skin from patients undergoing corrective abdominal plastic surgery. After removal of all adipose tissue, the skin was washed in PBS and incubated overnight on dispase II (Roche, Mannheim, Germany) at 4°C. The next day, epidermis was removed and discarded and the dermis was incubated in collagenase type II (Gibco, Life Technologies, Grand Island, USA)/dispase II in Hanks balanced salt solution (HBSS) (Gibco) at 37°C for 2–3 h. Fibroblast medium consisting of DMEM (Lonza, Verviers, Belgium) containing 1% ultroserG (UG) (Biosepra, Cergy-Saint-Christopher, France) and 1% penicillin-streptomycin (P/S) (Gibco) was added and the solution was passed through an 100 μm and 40 μm cell strainer (Becton Dickinson Falcon, Erembodegem, Belgium). A single cell suspension was seeded at ± 3.5 x 10^4 cells cm^2 and further cultured in fibroblast medium. Medium was changed twice a week and cultures were passaged when 90% confluent using 0.5mM EDTA/0.05% trypsin (Gibco). The cells were maintained at 37°C in a humidified atmosphere containing 5% CO2 and used for experiments at passage 3.
A wound healing scratch assay was performed to determine the effect of histatins, rhIL-6 and rhCXCL8 on fibroblast migration. Confluent monolayers of fibroblasts in a 48-well plate (Costar, Corning Incorporated, New York, USA) were incubated with serum-free medium (DMEM containing 1% P/S and 0.1% bovine serum albumin (Sigma-Aldrich)) for 96 h to ensure minimum spontaneous migration. Next, a scratch was drawn with a disposable plastic pipette tip. Cultures were exposed to Hst1, cHst1, Hst2 and mad-Hst1 (all used at a concentration of 5μM), rhIL-6 (125 ng/ml), rhCXCL8 (250 ng/ml) and vehicle (H2O) in serum free medium. Two experimental set-ups were studied: i) cells were exposed only during the first 8 h to histatins and cytokines and then transferred to vehicle supplemented medium for an additional 88 h; or ii) cells were exposed to histatins and cytokines during the entire 96 h study period. Phase contrast micrographs were taken directly after drawing the scratch and after four days (96 h) of exposure. Data were analyzed using an image processing algorithm that has been described in detail in our previous work. The area of the scratch covered by migrating fibroblasts was determined using the following equation: (E0-E96)/(U0-U96), in which: E = exposure to a condition (IL-6, CXCL8 and histatins); U = unexposed (serum-free medium); E0 and U0 = area of the scratch at T = 0 h; E96 and U96 = area of the scratch (not covered with cells) after 96 h. In this way, in each exposed group (IL-6, CXCL8, histatins) the resurfaced area at 96 h is compared to its own 0 h time point and then set relative to the unexposed group (serum-free medium).

The mark [1] stands for this setting: experiment 1, average of four replicates.
Where [2] appears, read: experiment 2, average of four replicates.
Where [3] appears, read: experiment 3, average of four replicates.

For the substance “cyclo(DNLPETGGDSHEKRHHGYRRKFHEKHHSHREFPFYGDYGSNYLY) [cHst1]”, the “Migration of dermal fibroblasts in scratch assay, 8 h exposure” value is reported as 1.6 under setting [1], 1.24 under setting [2] and 1.53 under setting [3]. The “Migration of dermal fibroblasts in scratch assay, 96 h exposure” value reads like this: under setting [1], 1.46; under setting [2], 1.26; under setting [3], 1.33.
